Calls of active or inactive are those of the source. The rule behind the calls is not given here.
Experiments:
HuCCT-1 [1] = test: (§1) Growth inhibition of human HuCCT1 cells at 10 uM after 72 hrs by MTT assay relative to control; format: functional
MIA PaCa-2 [2] = test: Downregulation of K-ras in human MIAPaCa2 cells at 7 uM after 72 hrs by agarose gel electrophoresis; format: functional, cell-based
[3] = Downregulation of K-ras in human HuCCT1 cells at 2 uM after 72 hrs by agarose gel electrophoresis; format: functional, cell-based; conditions: HuCCT-1
MIA PaCa-2 [4] = test: Induction of apoptosis in human MIAPaCa2 cells after 72 hrs; format: functional, cell-based
MIA PaCa-2 [5] = test: Inhibition of ERK phosphorylation in human MIAPaCa2 cells assessed as reduction in phospho-ERK levels at 7 uM after 48 hrs by immunoblotting; format: cell-based
HuCCT1 [6] = test: Inhibition of Akt phosphorylation in human HuCCT1 cells assessed as reduction in phospho-Akt levels at 6 uM after 48 hrs by immunoblotting; format: cell-based
MIA PaCa-2 [7] = test: Inhibition of Akt phosphorylation in human MIAPaCa2 cells assessed as effect on […] at 7 uM after 48 hrs by immunoblotting; format: cell-based
[8] = Growth inhibition of human HuCCT1 cells at 4 uM after 72 hrs by MTT assay relative to control; format: functional; conditions: HuCCT-1, 72 h, read-out: GI
[9] = Downregulation of H-ras in human HuCCT1 cells at 6 uM after 72 hrs by agarose gel electrophoresis; format: functional, cell-based; conditions: HuCCT-1
HuCCT-1 [10] = test: (§2) Cytotoxicity against human HuCCT1 cells after 72 hrs by MTT assay; format: functional, cell-based
[11] = as §2; format: functional, cell-based; conditions: HuCCT-1, 72 h
HuCCT-1 [12] = test: Induction of apoptosis in human HuCCT1 cells after 72 hrs; format: functional, cell-based
HuCCT1 [13] = test: Inhibition of ERK phosphorylation in human HuCCT1 cells assessed as reduction in phospho-ERK levels at 6 uM after 48 hrs by immunoblotting; format: cell-based
MIA PaCa-2 [14] = test: Growth inhibition of human MIAPaCa2 cells at 4 uM after 72 hrs by MTT assay relative to control; format: functional; conditions: MIA PaCa-2, 72 h, read-out: GI
MIA PaCa-2 [15] = test: Downregulation of K-ras in human MIAPaCa2 cells at 10 uM after 72 hrs by agarose gel electrophoresis; format: functional, cell-based
[16] = Downregulation of K-ras in human HuCCT1 cells at 6 uM after 72 hrs by agarose gel electrophoresis; format: functional, cell-based; conditions: HuCCT-1
MIA PaCa-2 [17] = test: Growth inhibition of human MIAPaCa2 cells at 10 uM after 72 hrs by MTT assay relative to control; format: functional; conditions: for inhibition of growth at 10 µM: MIA PaCa-2, 72 h, read-out: GI
MIA PaCa-2 [18] = test: Cytotoxicity against human MIAPaCa2 cells after 72 hrs by MTT assay; format: functional, cell-based; conditions: MIA PaCa-2, 72 h
[19] = as §1; format: functional; conditions: HuCCT-1, 72 h, read-out: GI
MIA PaCa-2 [20] = test: Growth inhibition of human MIAPaCa2 cells at 1 uM after 72 hrs by MTT assay; format: functional; conditions: MIA PaCa-2, 72 h, read-out: GI
[21] = Growth inhibition of human HuCCT1 cells at 1 uM after 72 hrs by MTT assay relative to control; format: functional; conditions: HuCCT-1, 72 h, read-out: GI
[22] = Cellular uptake in human HuCCT1 cells at 10 uM up to 30 mins by HPLC analysis; format: ADME, cell-based; conditions: hucct-1, 0.5 h
Nucleic Acid = test: Ratio of drug level in human MIAPaCa2 cells to human HuCCT1 cells at 30 mins; format: ADME, cell-based; conditions: mia paca-2, 0.5 h
[23] = Cellular uptake in human HuCCT1 cells at 10 uM measured after 30 mins up to 60 mins; format: ADME, cell-based; conditions: hucct-1, 10 µM
[24] = Downregulation of N-ras in human HuCCT1 cells at 2 uM after 72 hrs by agarose gel electrophoresis; format: functional, cell-based; conditions: HuCCT-1
HuCCT1 [25] = test: Inhibition of ERK phosphorylation in human HuCCT1 cells assessed as reduction in phospho-ERK levels at 2 uM after 48 hrs by immunoblotting; format: cell-based
MIA PaCa-2 [26] = test: Cellular uptake in human MIAPaCa2 cells at 10 uM up to 30 mins by HPLC analysis; format: ADME, cell-based; conditions: mia paca-2, 0.5 h
MIA PaCa-2 [27] = test: Inhibition of Akt phosphorylation in human MIAPaCa2 cells assessed as effect on […] at 10 uM after 48 hrs by immunoblotting; format: cell-based
HuCCT1 [28] = test: Inhibition of Akt phosphorylation in human HuCCT1 cells assessed as reduction in phospho-Akt levels at 2 uM after 48 hrs by immunoblotting; format: cell-based
[29] = Downregulation of H-ras in human HuCCT1 cells at 2 uM after 72 hrs by agarose gel electrophoresis; format: functional, cell-based; conditions: HuCCT-1
MIA PaCa-2 [30] = test: Inhibition of ERK phosphorylation in human MIAPaCa2 cells assessed as reduction in phospho-ERK levels at 10 uM after 48 hrs by immunoblotting; format: cell-based

Row | SMILES | Activity (MIA PaCa-2 [2]) | Activity [3] | Activity (MIA PaCa-2 [4]) | inhibition of growth at 4 µM [8] [%] | growth inhibition (GI) (HuCCT-1 [10]) | IC50 [11] [µM] | Activity (HuCCT-1 [12]) | inhibition of growth at 4 µM (MIA PaCa-2 [14]) [%] | Activity (MIA PaCa-2 [15]) | Activity [16] | IC50 (MIA PaCa-2 [18]) [µM] | inhibition of growth at 10 µM [19] [%] | inhibition of growth at 10 µM (MIA PaCa-2 [17]) [%] | other results
1 | CC1=C(/C=C/C(C)=C/C=C/C(C)=C/C(=O)Nc2ccc(O)cc2)C(C)(C)CCC1 [FENRETINIDE] | Active | Active | inactive | 17 | Dose-dependent effect | 6 | inactive | 8 | Active | Active | 7 | – | – | growth inhibition (GI) (HuCCT-1 [1]): Active; inhibition (MIA PaCa-2 [5]): inactive; inhibition (HuCCT1 [6]): inactive; inhibition (MIA PaCa-2 [7]): 30%; Activity [9]: Active; inhibition (HuCCT1 [13]): inactive; growth inhibition (GI) (MIA PaCa-2 [17]): Active
2 | CC1=C(/C=C/C(C)=C/C=C/C(C)=C/C(=O)O)C(C)(C)CCC1 [TRETINOIN] | – | – | – | 17 | – | – | – | 15 | – | – | – | 28 | 18 | –
3 | CCCCCCCCCCCC(=O)Nc1ccc(O)cc1 | – | – | – | 23 | Dose-dependent effect | – | – | – | – | – | – | – | 0 | –
4 | CCCCCCCCCCCCNc1ccc(O)cc1 | Active | Active | inactive | 82 | Dose-dependent effect | 2 | inactive | 45 | Active | Active | 10 | 84 | 50 | inhibition of growth at 1 µM (MIA PaCa-2 [20]): 20%; inhibition of growth at 1 µM [21]: 35%; Drug uptake [22]: Active; Ratio (Nucleic Acid): 1.8; Drug uptake [23]: Not Active; Activity [24]: Active; inhibition (HuCCT1 [25]): 21%; Drug uptake (MIA PaCa-2 [26]): Active; inhibition (MIA PaCa-2 [27]): inactive; inhibition (HuCCT1 [28]): 20%; Activity [29]: Active; inhibition (MIA PaCa-2 [30]): 50%
5 | CCCCCCCCCC(=O)Nc1ccc(O)cc1 | – | – | – | 23 | Dose-dependent effect | – | – | – | – | – | – | – | 0 | –
6 | CCCCCCCCCCNc1ccc(O)cc1 | – | – | – | 82 | Dose-dependent effect | – | – | – | – | – | – | – | 55 | –

From ChEMBL document CHEMBL2010790, “Growth inhibition and mechanism of action of p-dodecylaminophenol against refractory human pancreatic cancer and cholangiocarcinoma” (Bioorg Med Chem, 2012)
